We go through 45 molecules from patent US20110306597A1, “Nicotinamide Derivatives” (priority 2008, published 2011).

pIC50: −log10 of the molar value.

The target of this assay is human recombinant H-PGDS (Homo sapiens, UniProt O60760). Nature of the assay: Fluorescence Intensity h-PGDS TBA Enzyme Assay. The assay is classed as biochemical. The settings on record: 1:175,000 human recombinant H-PGDS, highest inhibitor concentration typically 1 μM. Summed up:
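Readout is PGH2 depletion: after a 42 s reaction with 5.0 μM PGH2 and 2.5 mM glutathione (pH 8.0 Tris, 10 min inhibitor preincubation), Fe(II) converts leftover PGH2 to MDA, which forms a fluorescent TBA complex. IC50s come from 11-point, 3-fold duplicate curves, 4-parameter fit.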

Chain of human recombinant H-PGDS (O60760 whole entry): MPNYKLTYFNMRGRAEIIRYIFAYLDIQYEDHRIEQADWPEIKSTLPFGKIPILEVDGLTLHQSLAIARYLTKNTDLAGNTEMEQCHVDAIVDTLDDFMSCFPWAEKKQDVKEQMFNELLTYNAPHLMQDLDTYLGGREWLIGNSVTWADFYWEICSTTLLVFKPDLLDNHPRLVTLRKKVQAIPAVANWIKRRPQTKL

Take `O=C(NCCCn1nnc2ccccc21)c1ccc(-c2cccc(F)c2)nc1` [Example 5, N-[3-(1H-Benzotriazol-1-yl)propyl]-6-(3-fluorophenyl)nicotinamide]: the pIC50 – broadly, −log10 of the IC50, conventionally taken in molar units – is 8.31.

For `COC(=O)CNC(=O)[C@H](C)NC(=O)c1ccc(-c2ccccc2)nc1` [Example 348, Methyl N-[(6-phenylpyridin-3-yl)carbonyl]-L-alanylglycinate], the pIC50 was 7.61.

Regarding `Cc1cccc2c1OCCC2NC(=O)c1ccc(-c2cc(F)cc(F)c2)nc1` (stereo not drawn) [Example 533, 6-(3,5-Difluorophenyl)-N-(8-methyl-3,4-dihydro-2H-chromen-4-yl)nicotinamide], the pIC50 is 8.06.

Consider `CSc1ccc(CNC(=O)c2ccc(-c3ccccc3)nc2)cc1` [Example 518, N-[4-(Methylthio)benzyl]-6-phenylnicotinamide], for which the negative-log IC50 (pIC50) is 7.76.

In the case of `O=C(NCc1noc(C(=O)N2CC[C@@H](O)C2)n1)c1ccc(-c2cccc(F)c2)nc1` [Example 211, 6-(3-Fluorophenyl)-N-[(5-{[(3R)-3-hydroxypyrrolidin-1-yl]carbonyl}-1,2,4-oxadiazol-3-yl)methyl]nicotinamide], the pIC50 is 6.44.

As to `CN1CCN(CCCNC(=O)c2ccc(-c3cccc(F)c3)nc2)CC1` [Example 111, 6-(3-Fluorophenyl)-N-[3-(4-methylpiperazin-1-yl)propyl]nicotinamide], the pIC50 is 6.97.

For the molecule `COc1cccc(-c2ccc(C(=O)NCCc3nc(C)no3)cn2)c1` [Example 278, 6-(3-Methoxyphenyl)-N-[2-(3-methyl-1,2,4-oxadiazol-5-yl)ethyl]nicotinamide], the pIC50 is 6.49.

Turning to `COc1cccc(-c2ccc(C(=O)NCCN3CCCCC3=O)cn2)c1` [Example 271, 6-(3-Methoxyphenyl)-N-[2-(2-oxopiperidin-1-yl)ethyl]nicotinamide], the negative-log IC50 (pIC50) is 6.66.

With `O=C(NCCN1CCNC1=O)c1ccc(-c2cccc(F)c2)nc1` [Example 148, 6-(3-Fluorophenyl)-N-[2-(2-oxoimidazolidin-1-yl)ethyl]nicotinamide], the negative logarithm of the IC50 (pIC50) was 7.49.

Turning to `COc1cc(CCNC(=O)c2ccc(-c3cccc(F)c3)nc2)cc(OC)c1O` [Example 21, 6-(3-Fluorophenyl)-N-[2-(4-hydroxy-3,5-dimethoxyphenyl)ethyl] nicotinamide], the negative-log IC50 (pIC50) is 8.31.

`O=C(Nc1ccccc1)c1ccc(-c2ccc(F)cc2)nc1` [Example 256, 6-(4-Fluorophenyl)-N-phenylnicotinamide]: the negative-log IC50 (pIC50) was 6.84.

On to `O=C(CNC(=O)c1ccc(-c2ccc(F)cc2)nc1)OCc1ccccc1` [Example 464, Benzyl N-{[6-(4-fluorophenyl)pyridin-3-yl]carbonyl}glycinate], for which the pIC50 was not above 6.00.

As to `O=C(NCc1ccco1)c1ccc(-c2ccccc2)nc1` [Example 379, N-(2-Furylmethyl)-6-phenylnicotinamide], the negative logarithm of the IC50 (pIC50) is 8.32.

Take `CCOC(=O)C(CNC(=O)c1ccc(-c2ccc(F)cc2)nc1)c1c(F)cccc1F` (stereo not drawn) [Example 457, Ethyl 2-(2,6-difluorophenyl)-3-({[6-(4-fluorophenyl)pyridin-3-yl]carbonyl}amino) propanoate]: the negative-log IC50 (pIC50) was 6.37.

Take `CCC1CCN(CCNC(=O)c2ccc(-c3cccc(C)c3)nc2)CC1` [Example 235, N-[2-(4-Ethylpiperidin-1-yl)ethyl]-6-(3-methylphenyl)nicotinamide]: the pIC50 is 7.41.

Turning to `O=C(NCCN1CCOCC1)c1ccc(-c2cccc(F)c2)nc1` [Example 169, 6-(3-Fluorophenyl)-N-(2-morpholin-4-ylethyl)nicotinamide], the pIC50 is 7.36.

As for `CSc1ccc(CNC(=O)c2ccc(-c3ccc(F)cc3)nc2)cc1` [Example 470, 6-(4-Fluorophenyl)-N-[4-(methylthio)benzyl]nicotinamide], the negative-log IC50 (pIC50) is not above 6.00.

On to `O=C(NCCN1CCC(O)CC1)c1ccc(-c2cccc(F)c2)nc1` [Example 32, 6-(3-Fluorophenyl)-N-[2-(4-hydroxypiperidin-1-yl)ethyl]nicotinamide], for which the negative-log IC50 (pIC50) is 7.51.

Take `O=C(NCCc1cn2cccnc2n1)c1ccc(-c2cccc(F)c2)nc1` [Example 6, 6-(3-Fluorophenyl)-N-(2-imidazo[1,2-a]pyrimidin-2-ylethyl)nicotinamide]: the negative-log IC50 (pIC50) was 7.89.

For the molecule `CCOCC(O)CNC(=O)c1ccc(-c2cccc(F)c2)nc1` (stereo not drawn) [Example 34, N-(3-Ethoxy-2-hydroxypropyl)-6-(3-fluorophenyl)nicotinamide], the negative logarithm of the IC50 (pIC50) was 7.13.

With `CCCCNC(=O)c1ccc(-c2ccccc2)nc1` [Example 368, N-Butyl-6-phenylnicotinamide], the pIC50 was 7.78.

On to `O=C(NCCc1cccs1)c1ccc(-c2ccccc2)nc1` [Example 363, 6-Phenyl-N-[2-(2-thienyl)ethyl]nicotinamide], for which the negative logarithm of the IC50 (pIC50) is 8.29.

On to `CCOC(=O)CC(NC(=O)c1ccc(-c2ccccc2)nc1)c1ccc(Cl)cc1` (stereo not drawn) [Example 401, Ethyl 3-(4-chlorophenyl)-3-{[(6-phenylpyridin-3-yl)carbonyl]amino}propanoate], for which the pIC50 is 7.51.

Consider `Cc1cccc(-c2ccc(C(=O)NC3CCOC3=O)cn2)c1` (stereo not drawn) [Example 250, 6-(3-Methylphenyl)-N-(2-oxotetrahydrofuran-3-yl)nicotinamide], for which the pIC50 was 7.13.

`CC(NC(=O)c1ccc(-c2cccc(F)c2)nc1)c1ccncn1` (stereo not drawn) [Example 443, 6-(3-Fluorophenyl)-N-(1-pyrimidin-4-ylethyl)nicotinamide]: the pIC50 is 6.44.

In the case of `COc1cccc(-c2ccc(C(=O)NCCN3CCOCC3)cn2)c1` [Example 332, 6-(3-Methoxyphenyl)-N-(2-morpholin-4-ylethyl)nicotinamide], the pIC50 is 6.49.

Turning to `Cc1cccc(-c2ccc(C(=O)NCCN3CCCC3)cn2)c1` [Example 237, 6-(3-Methylphenyl)-N-(2-pyrrolidin-1-ylethyl)nicotinamide], the pIC50 is 6.30.

For `COC(=O)CNC(=O)c1ccc(-c2cccc(OC)c2)nc1` [Example 283, Methyl N-{[6-(3-methoxyphenyl)pyridin-3-yl]carbonyl}glycinate], the negative-log IC50 (pIC50) was 6.08.

Consider `O=C(NCC1(O)CCCC1)c1ccc(-c2cccc(F)c2)nc1` [Example 140, 6-(3-Fluorophenyl)-N-[(1-hydroxycyclopentyl)methyl] nicotinamide], for which the pIC50 is 7.49.

For the molecule `Cc1ccc2c(c1)C(NC(=O)c1ccc(-c3cccc(F)c3)nc1)CC(C)(C)O2` (stereo not drawn) [Example 530, 6-(3-Fluorophenyl)-N-(2,2,6-trimethyl-3,4-dihydro-2H-chromen-4-yl)nicotinamide], the negative logarithm of the IC50 (pIC50) is 8.52.

As for `Cc1cccc(-c2ccc(C(=O)NCc3ccco3)cn2)c1` [Example 246, N-(2-Furylmethyl)-6-(3-methylphenyl)nicotinamide], the negative logarithm of the IC50 (pIC50) was 7.53.

Regarding `O=C(NCCc1cccs1)c1ccc(-c2cccc(F)c2)nc1` [Example 430, 6-(3-Fluorophenyl)-N-[2-(2-thienyl)ethyl]nicotinamide], the pIC50 is 7.93.

As to `O=C(NCCOCc1nc2ccccc2[nH]1)c1ccc(-c2cccc(F)c2)nc1` [Example 76, N-[2-(1H-Benzimidazol-2-ylmethoxy)ethyl]-6-(3-fluorophenyl)nicotinamide], the negative-log IC50 (pIC50) is 7.46.

Take `COc1ccc(OCC(O)CNC(=O)c2ccc(-c3cccc(F)c3)nc2)cc1` (stereo not drawn) [Example 43, 6-(3-Fluorophenyl)-N-[2-hydroxy-3-(4-methoxyphenoxy)propyl] nicotinamide]: the pIC50 was 8.18.

In the case of `COC(=O)c1ccc(CNC(=O)c2ccc(-c3ccc(F)cc3)nc2)cc1` [Example 268, Methyl 4-[({[6-(4-fluorophenyl)pyridin-3-yl]carbonyl}amino)methyl benzoate], the negative-log IC50 (pIC50) was 6.54.

On to `Cc1ccn(CCNC(=O)c2ccc(-c3cccc(F)c3)nc2)n1` [Example 92, 6-(3-Fluorophenyl)-N-[2-(3-methyl-1H-pyrazol-1-yl)ethyl]nicotinamide], for which the pIC50 was 7.73.

For the molecule `COc1ccc(CNC(=O)c2ccc(-c3cccc(F)c3)nc2)cc1` [Example 414, 6-(3-Fluorophenyl)-N-(4-methoxybenzyl)nicotinamide], the negative-log IC50 (pIC50) was 7.45.

Take `COc1cccc(-c2ccc(C(=O)NCc3ccccc3)cn2)c1` [Example 341, N-Benzyl-6-(3-methoxyphenyl)nicotinamide]: the negative-log IC50 (pIC50) is 6.88.

Turning to `O=C(NCC1CCCOC1)c1ccc(-c2cccc(F)c2)nc1` (stereo not drawn) [Example 40, 6-(3-Fluorophenyl)-N-(tetrahydro-2H-pyran-3-ylmethyl)nicotinamide], the pIC50 is 8.15.

Regarding `O=C(NC[C@@H]1COc2ccccc2C1)c1ccc(-c2cccc(F)c2)nc1` [Example 572], the pIC50 was 9.05.

Regarding `Cc1c(C(C)NC(=O)c2ccc(-c3cccc(F)c3)nc2)cnn1C` (stereo not drawn) [Example 125, N-[1-(1,5-Dimethyl-1H-pyrazol-4-yl)ethyl]-6-(3-fluorophenyl)nicotinamide], the negative logarithm of the IC50 (pIC50) is 7.62.

For the molecule `O=C(NCCN1CCOC1=O)c1ccc(-c2cccc(F)c2)nc1` [Example 186, 6-(3-Fluorophenyl)-N-[2-(2-oxo-1,3-oxazolidin-3-yl)ethyl]nicotinamide], the pIC50 was 7.46.

Turning to `Cc1cccc(-c2ccc(C(=O)NCc3ccc(S(N)(=O)=O)cc3)cn2)c1` [Example 449, N-[4-(Aminosulfonyl)benzyl]-6-(3-methylphenyl)nicotinamide], the negative-log IC50 (pIC50) was 7.59.

For the molecule `COc1ccc2nc(CNC(=O)c3ccc(-c4cccc(F)c4)nc3)[nH]c2c1` [Example 441, 6-(3-Fluorophenyl)-N-[(6-methoxy-1H-benzimidazol-2-yl)methyl]nicotinamide], the negative logarithm of the IC50 (pIC50) was 7.34.

`CCOC(=O)Cc1noc(CNC(=O)c2ccc(-c3cccc(F)c3)nc2)n1` [Example 201, Ethyl {5-[({[6-(3-fluorophenyl)pyridin-3-yl]carbonyl}amino)methyl]-1,2,4-oxadiazol-3-yl}acetate]: the negative logarithm of the IC50 (pIC50) is 7.23.
